Data: patent publication US12077503B2, “Substituted cyclic amides and their use as herbicides” (FMC CORPORATION, priority 2015, dated 2024)

What was measured:
Type in all cases: in vivo
[1] = test system: redroot pigweed (Amaranthus retroflexus); assay: Test G Pre-Emergence Protocol; conditions: Amaranthus retroflexus, pre-emergence, 312 h, evaluated after 13 days; for pest or weed control at 15.625 g/ha: 15.625 g ai/ha; for pest or weed control at 15.625 g/ha / pest or weed control at 250 g/ha: read-out: Pigweed, Redroot damage rating (100=total damage to plant; 0=no damage to plant); for pest or weed control at 62.5 g/ha: 62.5 g ai/ha, 100=total damage to plant, 0=no damage to plant, read-out: Pigweed, Redroot damage rating; for pest or weed control at 250 g/ha: 250 g ai/ha
Summary of the method: (§1)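 Seeds were sown in standard soil and kept one day in a glasshouse (24/16° C day/night, 14 h light, 65% humidity), then sprayed with compound in acetone/water (50:50) containing 0.5% Tween 20 at 15.625, 62.5 or 250 g/ha. Damage was scored after 13 days (0 = none, 100 = total).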

[2] = test system: ivy-leaved morning glory (Ipomoea hederacea); assay: Test G Pre-Emergence Protocol; conditions: Ipomoea, pre-emergence, 312 h, evaluated after 13 days; for pest or weed control at 15.625 g/ha: 15.625 g ai/ha; for pest or weed control at 15.625 g/ha / pest or weed control at 250 g/ha: read-out: Morningglory, Ivy-leaved damage rating (100=total damage to plant; 0=no damage to plant); for pest or weed control at 62.5 g/ha: 62.5 g ai/ha, 100=total damage to plant, 0=no damage to plant, read-out: Morningglory, Ivy-leaved damage rating; for pest or weed control at 250 g/ha: 250 g ai/ha
Summary of the method: as §1

corn (Zea mays) [3] = assay: Test G Pre-Emergence Protocol; conditions: Zea mays, pre-emergence, 312 h, evaluated after 13 days; for plant injury at 15.625 g/ha: 15.625 g ai/ha; for plant injury at 15.625 g/ha / plant injury at 250 g/ha: read-out: Corn damage rating (100=total damage to plant; 0=no damage to plant); for plant injury at 62.5 g/ha: 62.5 g ai/ha, 100=total damage to plant, 0=no damage to plant, read-out: Corn damage rating; for plant injury at 250 g/ha: 250 g ai/ha
Summary of the method: as §1

[4] = test system: velvetleaf (Abutilon theophrasti); assay: Test G Pre-Emergence Protocol; conditions: Abutilon theophrasti, pre-emergence, 312 h, evaluated after 13 days; for pest or weed control at 15.625 g/ha: 15.625 g ai/ha; for pest or weed control at 15.625 g/ha / pest or weed control at 250 g/ha: read-out: Velvetleaf damage rating (100=total damage to plant; 0=no damage to plant); for pest or weed control at 62.5 g/ha: 62.5 g ai/ha, 100=total damage to plant, 0=no damage to plant, read-out: Velvetleaf damage rating; for pest or weed control at 250 g/ha: 250 g ai/ha
Summary of the method: as §1

[5] = test system: giant foxtail (Setaria faberi); assay: Test G Pre-Emergence Protocol; conditions: Setaria faberi, pre-emergence, 312 h, evaluated after 13 days; for pest or weed control at 15.625 g/ha: 15.625 g ai/ha; for pest or weed control at 15.625 g/ha / pest or weed control at 250 g/ha: read-out: Foxtail, Giant damage rating (100=total damage to plant; 0=no damage to plant); for pest or weed control at 62.5 g/ha: 62.5 g ai/ha, 100=total damage to plant, 0=no damage to plant, read-out: Foxtail, Giant damage rating; for pest or weed control at 250 g/ha: 250 g ai/ha
Summary of the method: as §1

[6] = test system: barnyardgrass (Echinochloa crus-galli); assay: Test G Pre-Emergence Protocol; conditions: Echinochloa crus-galli, pre-emergence, 312 h, evaluated after 13 days; for pest or weed control at 15.625 g/ha: 15.625 g ai/ha; for pest or weed control at 15.625 g/ha / pest or weed control at 250 g/ha: read-out: Barnyardgrass damage rating (100=total damage to plant; 0=no damage to plant); for pest or weed control at 62.5 g/ha: 62.5 g ai/ha, 100=total damage to plant, 0=no damage to plant, read-out: Barnyardgrass damage rating; for pest or weed control at 250 g/ha: 250 g ai/ha
Summary of the method: as §1

[7] = test system: redroot pigweed (Amaranthus retroflexus); assay: Test G Post-Emergence Protocol; conditions: Amaranthus retroflexus, post-emergence, 312 h, read-out: Pigweed, Redroot damage rating; for pest or weed control at 15.625 g/ha: 15.625 g ai/ha, evaluated after 13 days (100=total damage to plant; 0=no damage to plant); for pest or weed control at 62.5 g/ha: 62.5 g ai/ha; for pest or weed control at 62.5 g/ha / pest or weed control at 250 g/ha: evaluated after 13 days, 100=total damage to plant, 0=no damage to plant; for pest or weed control at 250 g/ha: 250 g ai/ha
Summary of the method: (§2)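 Sow in soil; grow 8 d (24/16 °C, 14 h light, 65% humidity); spray 15.625/62.5/250 g/ha in acetone:water 50:50 + 0.5% Tween 20; grow on, water twice daily; score damage 0–100 at 13 d.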

[8] = test system: ivy-leaved morning glory (Ipomoea hederacea); assay: Test G Post-Emergence Protocol; conditions: Ipomoea, post-emergence, 312 h, read-out: Morningglory, Ivy-leaved damage rating; for pest or weed control at 15.625 g/ha: 15.625 g ai/ha, evaluated after 13 days (100=total damage to plant; 0=no damage to plant); for pest or weed control at 62.5 g/ha: 62.5 g ai/ha; for pest or weed control at 62.5 g/ha / pest or weed control at 250 g/ha: evaluated after 13 days, 100=total damage to plant, 0=no damage to plant; for pest or weed control at 250 g/ha: 250 g ai/ha
Summary of the method: as §2

corn (Zea mays) [9] = assay: Test G Post-Emergence Protocol; conditions: Zea mays, post-emergence, 312 h, read-out: Corn damage rating; for plant injury at 15.625 g/ha: 15.625 g ai/ha, evaluated after 13 days (100=total damage to plant; 0=no damage to plant); for plant injury at 62.5 g/ha: 62.5 g ai/ha; for plant injury at 62.5 g/ha / plant injury at 250 g/ha: evaluated after 13 days, 100=total damage to plant, 0=no damage to plant; for plant injury at 250 g/ha: 250 g ai/ha
Summary of the method: as §2

[10] = test system: velvetleaf (Abutilon theophrasti); assay: Test G Post-Emergence Protocol; conditions: Abutilon theophrasti, post-emergence, 312 h, read-out: Velvetleaf damage rating; for pest or weed control at 15.625 g/ha: 15.625 g ai/ha, evaluated after 13 days (100=total damage to plant; 0=no damage to plant); for pest or weed control at 62.5 g/ha: 62.5 g ai/ha; for pest or weed control at 62.5 g/ha / pest or weed control at 250 g/ha: evaluated after 13 days, 100=total damage to plant, 0=no damage to plant; for pest or weed control at 250 g/ha: 250 g ai/ha
Summary of the method: as §2

[11] = test system: giant foxtail (Setaria faberi); assay: Test G Post-Emergence Protocol; conditions: Setaria faberi, post-emergence, 312 h, read-out: Foxtail, Giant damage rating; for pest or weed control at 15.625 g/ha: 15.625 g ai/ha, evaluated after 13 days (100=total damage to plant; 0=no damage to plant); for pest or weed control at 62.5 g/ha: 62.5 g ai/ha; for pest or weed control at 62.5 g/ha / pest or weed control at 250 g/ha: evaluated after 13 days, 100=total damage to plant, 0=no damage to plant; for pest or weed control at 250 g/ha: 250 g ai/ha
Summary of the method: as §2

[12] = test system: barnyardgrass (Echinochloa crus-galli); assay: Test G Post-Emergence Protocol; conditions: Echinochloa crus-galli, post-emergence, 312 h, read-out: Barnyardgrass damage rating; for pest or weed control at 15.625 g/ha: 15.625 g ai/ha, evaluated after 13 days (100=total damage to plant; 0=no damage to plant); for pest or weed control at 62.5 g/ha: 62.5 g ai/ha; for pest or weed control at 62.5 g/ha / pest or weed control at 250 g/ha: evaluated after 13 days, 100=total damage to plant, 0=no damage to plant; for pest or weed control at 250 g/ha: 250 g ai/ha
Summary of the method: as §2

Compound | pest or weed control at 15.625 g/ha [1] | pest or weed control at 62.5 g/ha [1] | pest or weed control at 250 g/ha [1] | pest or weed control at 15.625 g/ha [2] | pest or weed control at 62.5 g/ha [2] | pest or weed control at 250 g/ha [2] | plant injury at 15.625 g/ha (corn (Zea mays) [3]) | plant injury at 62.5 g/ha (corn (Zea mays) [3]) | plant injury at 250 g/ha (corn (Zea mays) [3]) | pest or weed control at 15.625 g/ha [4] | pest or weed control at 62.5 g/ha [4] | pest or weed control at 250 g/ha [4] | pest or weed control at 15.625 g/ha [5] | pest or weed control at 62.5 g/ha [5] | pest or weed control at 250 g/ha [5] | pest or weed control at 15.625 g/ha [6] | pest or weed control at 62.5 g/ha [6] | pest or weed control at 250 g/ha [6] | pest or weed control at 15.625 g/ha [7] | pest or weed control at 62.5 g/ha [7] | also measured
CN1C[C@H](c2ccc(C(F)(F)F)cc2)[C@@H](C(=O)Nc2cnccc2C#N)C1=O (racemic) [Compound 1760] | 0% | 0% | 0% | 0% | 0% | 0% | 0% | 0% | 0% | 0% | 0% | 0% | 0% | 0% | 30% | 0% | 0% | 0% | 0% | 0% | pest or weed control at 250 g/ha [7]: 0%; pest or weed control at 15.625 g/ha [8]: 0%; pest or weed control at 62.5 g/ha [8]: 0%; pest or weed control at 250 g/ha [8]: 20%; plant injury at 15.625 g/ha (corn (Zea mays) [9]): 0%; plant injury at 62.5 g/ha (corn (Zea mays) [9]): 0%; plant injury at 250 g/ha (corn (Zea mays) [9]): 10%; pest or weed control at 15.625 g/ha [10]: 0%; pest or weed control at 62.5 g/ha [10]: 0%; pest or weed control at 250 g/ha [10]: 10%; pest or weed control at 15.625 g/ha [11]: 0%; pest or weed control at 62.5 g/ha [11]: 0%; pest or weed control at 250 g/ha [11]: 20%; pest or weed control at 15.625 g/ha [12]: 0%; pest or weed control at 62.5 g/ha [12]: 0%; pest or weed control at 250 g/ha [12]: 10%
CN1C[C@@H](c2ccc(CF)cc2)[C@H](C(=O)Nc2cccc(F)c2F)C1=O (racemic) [Compound 1822] | 0% | 60% | 80% | 0% | 20% | 80% | 0% | 20% | 70% | 0% | 60% | 80% | 90% | 90% | 90% | 70% | 90% | 90% | 0% | 10% | pest or weed control at 250 g/ha [7]: 30%; pest or weed control at 15.625 g/ha [8]: 20%; pest or weed control at 62.5 g/ha [8]: 10%; pest or weed control at 250 g/ha [8]: 30%; plant injury at 15.625 g/ha (corn (Zea mays) [9]): 0%; plant injury at 62.5 g/ha (corn (Zea mays) [9]): 40%; plant injury at 250 g/ha (corn (Zea mays) [9]): 60%; pest or weed control at 15.625 g/ha [10]: 0%; pest or weed control at 62.5 g/ha [10]: 30%; pest or weed control at 250 g/ha [10]: 40%; pest or weed control at 15.625 g/ha [11]: 70%; pest or weed control at 62.5 g/ha [11]: 80%; pest or weed control at 250 g/ha [11]: 80%; pest or weed control at 15.625 g/ha [12]: 70%; pest or weed control at 62.5 g/ha [12]: 80%; pest or weed control at 250 g/ha [12]: 80%
CN1C[C@H](c2ccnc(C(C)(C)C)n2)[C@@H](C(=O)Nc2cccc(F)c2F)C1=O (racemic) [Compound 1769] | 0% | 0% | 0% | 0% | 0% | 0% | 0% | 0% | 0% | 0% | 0% | 0% | 20% | 40% | 90% | 0% | 20% | 70% | 0% | 0% | pest or weed control at 250 g/ha [7]: 0%; pest or weed control at 15.625 g/ha [8]: 0%; pest or weed control at 62.5 g/ha [8]: 0%; pest or weed control at 250 g/ha [8]: 20%; plant injury at 15.625 g/ha (corn (Zea mays) [9]): 0%; plant injury at 62.5 g/ha (corn (Zea mays) [9]): 0%; plant injury at 250 g/ha (corn (Zea mays) [9]): 10%; pest or weed control at 15.625 g/ha [10]: 0%; pest or weed control at 62.5 g/ha [10]: 0%; pest or weed control at 250 g/ha [10]: 0%; pest or weed control at 15.625 g/ha [11]: 0%; pest or weed control at 62.5 g/ha [11]: 10%; pest or weed control at 250 g/ha [11]: 60%; pest or weed control at 15.625 g/ha [12]: 0%; pest or weed control at 62.5 g/ha [12]: 0%; pest or weed control at 250 g/ha [12]: 50%
